Results published in US7288527B2, “Inhibition of allergic contact dermatitis by N-L-alpha-aspartyl-L-phenylalanine 1-methyl ester” (priority 2004, dated 2007).
Residues, ends and D or L forms follow the SMILES beside them.

How the values were obtained:
[1] = system: human skin exposed to urushiol (poison sumac, poison ivy); assay: Treatment and prevention of urushiol-induced dermatitis on human skin (Example 3, Patient 1); type: in vivo; settings: topical lotion with 0.5 to 1 mg APM/ml, two to three times per day, also two packets Equal by mouth
Experimental: The goats frequently consumed and were in contact with both poison sumac and poison ivy abundant in their enclosure without experiencing symptoms.
A topical APM preparation was made by mixing 2 to 3 packets of Equal® brand sweetner (80-120 mg of APM) with approximately 170 ml (5.5 fluid ounces) of lotion containing Vaseline® Intensive Care® Water Resistant Moisturizing Lotion (Unilever United States, Inc.), resulting in a lotion with 0.5 to 1 mg APM/ml. Patient 1 had previously used the lotion base without effect. Patient 1 also took two packets of Equal® brand sweetener by mouth in response to a symptom of diarrhea, a condition known to be associated with urishiol.
A soap and water scrub of the affected area was done one hour after application of the cream, and the affected area allowed to air dry.
Additional affected areas were then discovered on Patient 1, and a lotion was prepared for Patient 1 to use on these areas as well as unaffected areas that could come in contact with poison ivy during their work. Patient 1 used additional topical APM preparation approximately two to three times per day.

[2] = system: human rash secondary to urushiol exposure; assay: Treatment of rash caused by urushiol (Example 4); type: in vivo
Experimental: A human rash, with itching, in progress secondary to contact with an animal known to have had significant exposure to urushiol substances was arrested in 8 hours with 2 applications of aspartame in a Vaseline Intensive Care Lotion base (about 1.2 to 10 mg/ml). The itching ceased, and discomfort and irritation resolved within 8 hours.

[3] = system: skin previously exposed to urushiol; assay: Treatment of allergic contact dermatitis with APM in a cream base (Example 1); type: in vivo; settings: thin film of APM in a cream base; after sixty (60) minutes
Excerpt: To an area of skin previously exposed to urushiol is applied a thin film of APM in a cream base. […] Further treatment may include washing the affected area to remove and displace urushiol dissolved in the applied lotion and followed by reapplication of APM containing cream or lotion.

[4] = system: skin which may be exposed to urushiol; assay: Prevention of urushiol-induced dermatitis on human skin (Example 2); type: in vivo; settings: thin film of APM suspended in a petroleum cream base applied before exposure
Excerpt: To an area of skin which may be exposed to urushiol is applied a thin film of APM suspended in a petroleum cream base.

[5] = system: capsaicin taste receptor (tongue); assay: Oral application of APM with capsaicin-containing red pepper sauce; type: in vivo
Excerpt: The variability in observable results in preventing dermatitis or topical irritation appear related to the amount of APM that is applied, the time and order of the therapeutic application, and the presence of receptors to which either the irritant oil or APM may bind.

[6] = system: capsaicin burning sensation on the tongue; assay: Treatment of capsaicin irritation of the tongue (Example 6); type: in vivo, human; settings: dry powder, at least about 10 mg APM per 250 microliters of saliva
Experimental: A person eating spicy food seasoned with peppers is exposed to capsaicin, an irritant oil related to urushiol, causing an uncomfortable burning sensation on the tongue. APM or a derivative thereof is applied to the affected area as a dry powder in the amount of at least about 10 mg APM per 250 microliters of saliva, resulting in relief. Preferably, about 35 to about 80 mg of APM is applied to the area affected.

[7] = system: capsaicin burning of the eye; assay: Alleviation of capsaicin burning of the eye (Example 7); type: in vivo, human; settings: about 10 mg per 250 microliters in sterile saline applied to the affected eye
Experimental: A kitchen worker is exposed to capsaicin oil from peppers during cooking preparation, the oil is transferred to their hands and then, by their hands, to their eyes, resulting in a burning sensation and pain. […] The application may be repeated in 15 min because tearing may dilute or wash away the active ingredients.

[8] = system: capsaicin burning and pain of mucosa, eyes or nose; assay: APM against inadvertent mucosal contact with capsaicin cream (Example 8); type: in vivo, human; settings: preparation comprising 38 mg of APM per 5 ml applied to the affected area
Experimental: A patient is treated for arthritis with a capsaicin cream applied twice daily to the affected joint. Capsaicin is absorbed by the transdermal tissue and then transported to joint area. After an appropriate interval, for instance 2-5 days, significant reduction in swelling, heat, redness, and pain is observed. However, the patient also inadvertently contacts his or her urethra, periurethra tissues, vaginal mucosa, rectal mucosa, eyes, or nose with the capsaicin cream, resulting in a sensation of burning and pain in the affected area.

[9] = cited from earlier work

## COC(=O)[C@H](Cc1ccccc1)NC(=O)[C@@H](N)CC(=O)O [APM, N-L-alpha-aspartyl-L-phenylalanine 1-methyl ester] (H-Asp-Phe-OMe)
[1]
  rash or reaction observed on the day after application: no rash or reaction had occurred
[2]; 2 applications of aspartame in Vaseline Intensive Care Lotion base (about 1.2 to 10 mg/ml)
  time to arrest of rash with itching: 8 h
[2]; 2 applications, lotion base about 1.2 to 10 mg/ml
  time until itching ceased and discomfort and irritation resolved: ≤ 8 h
[2]; overnight after 2 applications, lotion base about 1.2 to 10 mg/ml
  state of rash overnight: the rash was gone
[3]
  symptoms of allergic contact dermatitis: significantly reduced
[4]
  symptoms of allergic contact dermatitis (prophylactic use): either do not appear or are significantly reduced
[5]; long duration of exposure to capsaicin leading to secondary effects
  APM response after long exposure to capsaicin: not as strong nor as quick
[5]; oral application of APM before red pepper sauce
  recognition of spicyness of red pepper sauce: absence of recognition of the spicyness
[5]; red pepper sauce applied to the tongue first, APM applied after
  effect on developed sensations of heat and irritation: displacement by APM of capsaicin from the taste receptor is manifested and recognized quickly
[6]
  burning sensation on the tongue: relief
[7]
  burning sensation of the eye: the burning sensation is alleviated
[8]
  burning and pain in the affected area: reducing or eliminating the burning and pain
[9]; pH 2.2
  maximum solubility in water: 20 mg/mL
[9]; pH 5.2
  minimum solubility in water: 13.5 mg/mL
